pIC50: −log10 of the molar value. “And” between values parts separate entries of the source, which are not always exact repeats. Equal values may be shown once. Read-outs that look alike come from different tables or passages of the source.
What was measured:
[1] = test system: HAP1 cells; experiment: Radiosensitisation of HAP1 wild type cells, regrowth assay; type: cell-based, human; conditions: for radiosensitisation / differential growth inhibition of HAP1 cells: 3 Gy cobalt-60 gamma irradiation relative to radiation-only; for pIC50: Homo sapiens, HAP1, read-out: HAP1 wt IC50
[2] = target: ATR/ATRIP (Homo sapiens, UniProt Q13535); experiment: ATR/ATRIP Human PIKK Kinase Enzymatic Radiometric Assay, KinaseProfiler (Eurofins Discovery); type: biochemical; conditions: Km ATP, Table 15, read-out: Inhibition of PIKK kinase activity ATR
[3] = target: ATM (Homo sapiens, UniProt Q13315); experiment: ATM Human PIKK Kinase Enzymatic ELISA/EIA Assay, KinaseProfiler (Eurofins Discovery); type: biochemical; conditions: KinaseProfiler, Km ATP; Table 15; read-out: Inhibition of PIKK kinase activity ATM
ATM, sequence (Q13315 whole entry): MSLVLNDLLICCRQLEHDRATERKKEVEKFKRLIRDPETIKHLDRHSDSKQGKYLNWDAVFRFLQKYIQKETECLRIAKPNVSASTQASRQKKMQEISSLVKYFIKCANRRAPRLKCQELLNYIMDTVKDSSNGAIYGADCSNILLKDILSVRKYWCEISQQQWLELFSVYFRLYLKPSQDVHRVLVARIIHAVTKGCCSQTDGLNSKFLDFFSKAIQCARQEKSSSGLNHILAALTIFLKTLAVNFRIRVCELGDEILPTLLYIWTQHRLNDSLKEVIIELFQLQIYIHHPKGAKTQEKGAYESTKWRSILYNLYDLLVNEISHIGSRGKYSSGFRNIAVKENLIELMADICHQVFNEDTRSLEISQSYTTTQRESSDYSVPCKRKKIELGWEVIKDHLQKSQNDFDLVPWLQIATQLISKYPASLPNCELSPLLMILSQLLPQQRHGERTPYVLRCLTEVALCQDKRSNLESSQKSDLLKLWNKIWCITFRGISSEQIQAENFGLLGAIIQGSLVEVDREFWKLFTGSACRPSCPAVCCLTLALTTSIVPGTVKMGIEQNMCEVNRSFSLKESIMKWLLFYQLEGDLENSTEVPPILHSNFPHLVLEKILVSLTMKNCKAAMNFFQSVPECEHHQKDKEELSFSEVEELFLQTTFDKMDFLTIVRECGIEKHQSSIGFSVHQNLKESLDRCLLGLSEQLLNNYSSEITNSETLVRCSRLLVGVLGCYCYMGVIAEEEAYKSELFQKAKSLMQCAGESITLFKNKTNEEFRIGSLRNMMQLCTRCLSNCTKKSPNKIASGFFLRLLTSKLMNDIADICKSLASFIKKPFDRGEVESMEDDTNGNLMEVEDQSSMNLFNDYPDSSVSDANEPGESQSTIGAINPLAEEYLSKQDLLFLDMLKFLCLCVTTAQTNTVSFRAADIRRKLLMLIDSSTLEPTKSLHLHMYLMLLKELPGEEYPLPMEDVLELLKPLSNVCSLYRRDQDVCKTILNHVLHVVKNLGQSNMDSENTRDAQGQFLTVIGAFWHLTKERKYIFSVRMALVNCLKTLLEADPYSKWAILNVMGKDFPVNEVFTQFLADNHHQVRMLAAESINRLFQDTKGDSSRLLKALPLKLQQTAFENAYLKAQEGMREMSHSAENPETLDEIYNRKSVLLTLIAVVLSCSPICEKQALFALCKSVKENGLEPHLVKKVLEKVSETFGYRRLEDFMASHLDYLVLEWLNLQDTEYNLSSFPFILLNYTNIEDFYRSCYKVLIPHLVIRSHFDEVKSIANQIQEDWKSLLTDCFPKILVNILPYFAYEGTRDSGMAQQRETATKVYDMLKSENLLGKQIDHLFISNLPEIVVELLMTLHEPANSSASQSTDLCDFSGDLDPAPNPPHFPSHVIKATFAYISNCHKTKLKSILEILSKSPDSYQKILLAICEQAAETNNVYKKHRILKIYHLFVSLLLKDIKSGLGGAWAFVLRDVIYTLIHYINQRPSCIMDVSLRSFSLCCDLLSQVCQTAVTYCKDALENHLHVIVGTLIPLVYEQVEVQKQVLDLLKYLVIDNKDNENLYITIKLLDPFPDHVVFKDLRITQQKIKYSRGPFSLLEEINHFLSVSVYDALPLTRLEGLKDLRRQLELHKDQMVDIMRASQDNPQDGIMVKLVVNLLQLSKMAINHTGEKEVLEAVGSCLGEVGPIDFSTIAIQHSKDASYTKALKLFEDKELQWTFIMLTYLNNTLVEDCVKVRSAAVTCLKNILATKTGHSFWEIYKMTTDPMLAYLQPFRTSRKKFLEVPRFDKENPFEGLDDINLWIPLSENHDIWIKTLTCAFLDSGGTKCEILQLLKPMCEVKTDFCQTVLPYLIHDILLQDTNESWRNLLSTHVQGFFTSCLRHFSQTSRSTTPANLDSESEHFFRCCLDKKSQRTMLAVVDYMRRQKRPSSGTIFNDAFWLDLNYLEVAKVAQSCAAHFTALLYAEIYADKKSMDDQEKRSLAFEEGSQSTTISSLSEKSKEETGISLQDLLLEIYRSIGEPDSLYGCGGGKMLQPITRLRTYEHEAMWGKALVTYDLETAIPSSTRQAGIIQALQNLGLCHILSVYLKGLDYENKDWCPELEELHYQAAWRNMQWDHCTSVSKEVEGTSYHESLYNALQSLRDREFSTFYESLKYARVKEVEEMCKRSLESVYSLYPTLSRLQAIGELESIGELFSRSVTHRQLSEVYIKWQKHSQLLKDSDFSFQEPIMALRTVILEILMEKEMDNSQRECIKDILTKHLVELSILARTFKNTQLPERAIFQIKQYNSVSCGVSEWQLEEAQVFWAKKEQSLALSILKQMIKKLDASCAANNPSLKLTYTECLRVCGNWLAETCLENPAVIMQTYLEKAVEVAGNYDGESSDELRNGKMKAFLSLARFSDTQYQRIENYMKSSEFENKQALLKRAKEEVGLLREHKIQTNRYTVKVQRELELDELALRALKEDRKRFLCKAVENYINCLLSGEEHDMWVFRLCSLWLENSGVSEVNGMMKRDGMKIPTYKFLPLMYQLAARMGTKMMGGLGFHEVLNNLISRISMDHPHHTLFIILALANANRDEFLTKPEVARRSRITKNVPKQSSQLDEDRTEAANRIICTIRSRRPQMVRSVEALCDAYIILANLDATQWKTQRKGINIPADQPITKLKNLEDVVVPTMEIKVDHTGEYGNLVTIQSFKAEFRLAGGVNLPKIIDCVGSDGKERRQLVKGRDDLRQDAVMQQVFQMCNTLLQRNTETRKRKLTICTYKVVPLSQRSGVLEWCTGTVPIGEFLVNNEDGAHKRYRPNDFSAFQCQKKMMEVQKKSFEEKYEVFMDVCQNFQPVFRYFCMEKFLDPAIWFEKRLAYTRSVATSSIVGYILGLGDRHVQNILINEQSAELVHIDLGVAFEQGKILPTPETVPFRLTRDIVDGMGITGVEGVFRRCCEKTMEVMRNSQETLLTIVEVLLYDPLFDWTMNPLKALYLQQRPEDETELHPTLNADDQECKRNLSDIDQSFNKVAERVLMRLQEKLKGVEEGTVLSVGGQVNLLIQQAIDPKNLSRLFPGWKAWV

[4] = target: human DNA-PK (Homo sapiens, UniProt P78527); experiment: Inhibition of DNA-PKcs kinase activity, HotSpot assay (Reaction Biology), [γ-33P]-ATP phosphorylation of peptide substrate; type: biochemical; conditions: for IC50: 10 μM ATP, 10 μg/ml DNA, mean of two replicates, Table 12, read-out: Inhibition of kinase activity (as IC50) DNA-PK (converted); for pIC50: HotSpot assay Reaction Biology Corp., Table 15, read-out: Inhibition of PIKK kinase activity DNA-PK
[5] = test system: UT-SCC-54C tumour xenografts; experiment: Radiosensitisation of UT-SCC-54C HNSCC tumours, ex vivo clonogenic assay of tumour xenografts; type: in vivo, female NIH-III mice
[6] = test system: UT-SCC-54C cells; experiment: Radiosensitisation of UT-SCC-54C HNSCC cells, clonogenic survival, oxic and anoxic (Table 18); type: cell-based, human; conditions: for Plating efficiency drug/no drug: no radiation; for SER (sensitiser enhancement ratio): UT-SCC-54C, anoxic conditions, FIG. 10; for SER (sensitiser enhancement ratio) / radiosensitisation of UT-SCC-54C cells under oxic conditions: clonogenic survival; for radiosensitisation of UT-SCC-54C cells under oxic conditions: FIG. 9
[7] = target: human mTOR (Homo sapiens, UniProt P42345); experiment: Inhibition of mTOR kinase activity, HotSpot assay, phosphorylation of 4EPB1
[8] = target: human PI3Kα (p110α/p85α) (Homo sapiens, UniProt P42336); experiment: Inhibition of PI3Kα kinase activity, ADP-Glo Assay (Reaction Biology); type: biochemical; conditions: 10 μM ATP; mean of two replicates; Table 12; read-out: Inhibition of kinase activity (as IC50) PICK
human PI3Kα (p110α/p85α), sequence (P42336 whole entry): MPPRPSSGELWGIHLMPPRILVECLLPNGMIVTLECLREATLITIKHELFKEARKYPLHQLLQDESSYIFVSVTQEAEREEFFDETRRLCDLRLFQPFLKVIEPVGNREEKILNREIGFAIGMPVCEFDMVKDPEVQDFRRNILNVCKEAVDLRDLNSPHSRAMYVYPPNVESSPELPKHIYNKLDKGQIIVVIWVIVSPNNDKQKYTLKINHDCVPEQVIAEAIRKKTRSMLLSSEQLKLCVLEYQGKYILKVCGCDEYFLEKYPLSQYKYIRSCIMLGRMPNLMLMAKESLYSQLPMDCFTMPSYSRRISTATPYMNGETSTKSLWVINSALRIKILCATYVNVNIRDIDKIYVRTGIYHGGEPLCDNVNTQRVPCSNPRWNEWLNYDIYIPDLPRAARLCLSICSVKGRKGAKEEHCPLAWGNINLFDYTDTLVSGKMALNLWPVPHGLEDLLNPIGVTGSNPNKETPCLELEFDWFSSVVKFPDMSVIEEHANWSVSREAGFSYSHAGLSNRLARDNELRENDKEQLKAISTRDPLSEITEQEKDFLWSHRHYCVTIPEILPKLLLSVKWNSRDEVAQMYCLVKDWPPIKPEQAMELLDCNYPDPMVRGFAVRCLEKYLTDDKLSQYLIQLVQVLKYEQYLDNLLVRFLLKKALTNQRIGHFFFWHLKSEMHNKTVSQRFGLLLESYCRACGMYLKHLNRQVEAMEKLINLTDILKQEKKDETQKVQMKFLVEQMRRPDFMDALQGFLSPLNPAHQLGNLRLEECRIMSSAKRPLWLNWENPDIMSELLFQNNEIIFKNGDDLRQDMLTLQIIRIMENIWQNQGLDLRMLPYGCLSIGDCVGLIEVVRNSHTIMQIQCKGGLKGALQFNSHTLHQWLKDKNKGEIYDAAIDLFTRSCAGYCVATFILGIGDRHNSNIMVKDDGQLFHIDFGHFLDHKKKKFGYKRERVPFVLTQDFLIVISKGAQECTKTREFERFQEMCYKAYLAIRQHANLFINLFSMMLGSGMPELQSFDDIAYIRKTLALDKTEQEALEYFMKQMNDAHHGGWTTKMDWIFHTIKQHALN
human PI3Kα (p110α/p85α), sequence (P27986 whole entry partner): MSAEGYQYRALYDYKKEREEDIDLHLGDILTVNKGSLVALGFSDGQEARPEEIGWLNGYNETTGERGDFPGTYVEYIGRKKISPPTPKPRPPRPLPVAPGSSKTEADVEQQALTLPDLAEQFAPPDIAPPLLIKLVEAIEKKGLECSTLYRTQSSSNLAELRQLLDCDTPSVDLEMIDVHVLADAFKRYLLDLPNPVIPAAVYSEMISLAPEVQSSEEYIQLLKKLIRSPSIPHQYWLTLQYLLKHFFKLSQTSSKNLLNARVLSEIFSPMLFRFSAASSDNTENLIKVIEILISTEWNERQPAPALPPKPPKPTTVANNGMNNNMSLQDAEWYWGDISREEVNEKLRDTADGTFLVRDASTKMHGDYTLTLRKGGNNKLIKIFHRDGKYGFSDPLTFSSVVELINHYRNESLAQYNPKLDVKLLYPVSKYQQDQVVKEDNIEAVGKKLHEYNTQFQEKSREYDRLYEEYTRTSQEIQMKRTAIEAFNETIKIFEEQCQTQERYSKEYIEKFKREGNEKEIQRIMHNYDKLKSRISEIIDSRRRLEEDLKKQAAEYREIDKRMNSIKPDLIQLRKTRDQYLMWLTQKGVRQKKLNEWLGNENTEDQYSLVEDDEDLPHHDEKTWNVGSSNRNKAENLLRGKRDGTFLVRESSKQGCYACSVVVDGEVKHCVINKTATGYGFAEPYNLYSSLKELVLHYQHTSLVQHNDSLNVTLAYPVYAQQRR

[9] = test system: HAP1/PRKDC−/− cells; experiment: Radiosensitisation of DNA-PK null HAP1/PRKDC−/− cells, regrowth assay; type: cell-based, human; conditions: for radiosensitisation / differential growth inhibition of DNA-PK null HAP1 line: 3 Gy, HAP1/PRKDC−/−; for pIC50: Homo sapiens, HAP1
[10] = test system: UT-SCC-54C cells; experiment: Radiosensitisation of UT-SCC-54C HNSCC cells, regrowth (sulforhodamine B) assay, oxic (Table 16); type: cell-based, human; conditions: for pIC50: Homo sapiens, read-out: IC50; for S50: compound in combination with 3 Gy of radiation, 50% inhibition of regrowth fraction, UT-SCC-54C; for S50 / radiosensitisation / differential growth inhibition of UT-SCC-54C cells: oxic; for radiosensitisation / differential growth inhibition of UT-SCC-54C cells: 0 or 3 Gy, regrowth assay
[11] = test system: UT-SCC-54C cells; experiment: Hypoxia-selective metabolism of prodrugs by UT-SCC-54C cells, LC-MS; conditions: 10 μM, 0-3 h
[12] = target: Ser2056 of DNA-PKcs (Homo sapiens, UniProt P78527); experiment: Inhibition of cellular autophosphorylation at Ser2056 of DNA-PKcs in UT-SCC-54C cells, western immunoblotting; type: cell-based
[13] = target: T1, Ser1981 of ataxia-telangiectasia mutated (ATM) (Homo sapiens, UniProt Q13315); experiment: Inhibition of phosphorylation of Ser1981 of ATM in UT-SCC-54C cells, western immunoblotting; type: cell-based; conditions: oxia, 10 Gy, FIG. 7 (10 μM)
T1 construct: Ser1981 of ataxia-telangiectasia mutated (ATM) in UT-SCC-54C cells
T1 sequence (Q13315 whole entry, change not shown): as the sequence (Q13315 whole entry) above

[14] = Inhibition of PIKK kinase activity mTOR/FRAP (nM), HotSpot assay Reaction Biology Corp., Table 15
[15] = Inhibition of kinase activity (as IC50) mTOR (nM), 10 μM ATP, mean of two replicates, Table 12

COc1ccc(N(C(=O)OCc2cnc([N+](=O)[O-])n2C)c2cc3c(cn2)n(C)c(=O)n3C2CCOCC2)c(C)c1 [Compound 248, (1-Methyl-2-nitro-1H-imidazol-5-yl)methyl (4-methoxy-2-methylphenyl)(3-methyl-2-oxo-1-(tetrahydro-2H-pyran-4-yl)-2,3-dihydro-1H-imidazo[4,5-c]pyridin-6-yl)carbamate]
radiosensitisation / differential growth inhibition of HAP1 cells [1]: did not demonstrate any differential growth inhibition | pIC50 [1]: < 5.00 | pIC50 [2]: < 4.00 | pIC50 [3]: < 4.00 | IC50 [4]: 0.0185 µM and 0.14 µM | pIC50 [4]: 7.73 | reduction in clonogens/gram of tumour, compound with radiation compared to radiation alone ([5]; IP 50 mg/kg 15 min before and 6 h after 13 Gy whole-body irradiation): smaller, but significant (p=0.018) effect | reduction in clonogens/gram of tumour tissue, compound alone ([5]; IP 2 x 50 mg/kg, no radiation, compared to DMSO control): no reduction | D1 (radiation dose for 1% surviving fraction) ([6]; 0% O2, compound conc 1 μM): 13.8 Gy | D10 (radiation dose for 10% surviving fraction) ([6]; 0% O2, compound conc 1 μM): 8.57 Gy | SER1 (sensitiser enhancement ratio at 1% surviving fraction) ([6]; 0% O2, compound conc 1 μM): 1.71 | SER10 (sensitiser enhancement ratio at 10% surviving fraction) ([6]; 0% O2, compound conc 1 μM): 1.73 | Plating efficiency drug/no drug ([6]; 0% O2, compound conc 1 μM): 1.13 | D1 (radiation dose for 1% surviving fraction) ([6]; 20% O2, compound conc 1 μM): 9.34 Gy | D10 (radiation dose for 10% surviving fraction) ([6]; 20% O2, compound conc 1 μM): 5.61 Gy | SER1 (sensitiser enhancement ratio at 1% surviving fraction) ([6]; 20% O2, compound conc 1 μM): 1.04 | SER10 (sensitiser enhancement ratio at 10% surviving fraction) ([6]; 20% O2, compound conc 1 μM): 1.12 | Plating efficiency drug/no drug ([6]; 20% O2, compound conc 1 μM): 1.21 | SER (sensitiser enhancement ratio) [6]: 1.82 | radiosensitisation of UT-SCC-54C cells under oxic conditions [6]: does not | IC50 [7, 14]: ≥ 10000 nM | IC50 [7, 15]: > 100000 nM | pIC50 ([7]; read-out: Inhibition of kinase activity (as IC50) mTOR, 10 μM ATP, mean of two replicates, Table 12): < 4.00 | pIC50 [8]: 3.97 and < 4.00 | radiosensitisation / differential growth inhibition of DNA-PK null HAP1 line [9]: did not demonstrate any differential growth inhibition | pIC50 [9]: < 5.00 | pIC50 [10]: < 5.00 | S50 [10]: >10 µM | radiosensitisation / differential growth inhibition of UT-SCC-54C cells [10]: did not display any differential growth inhibition | metabolism of prodrug by UT-SCC-54C cells under anoxic conditions (release of 121) ([11]; anoxic): selectively metabolised | metabolism of prodrug by UT-SCC-54C cells under oxic conditions ([11]; oxic): not under oxic conditions

Cc1cc(OCc2cnc([N+](=O)[O-])n2C)ccc1Nc1cc2c(cn1)n(C)c(=O)n2C1CCCC1 [Compound 234, 1-Cyclopentyl-3-methyl-6-((2-methyl-4-((1-methyl-2-nitro-1H-imidazol-5-yl)methoxy)phenyl)amino)-1,3-dihydro-2H-imidazo[4,5-c]pyridin-2-one]
inhibition of radiation-induced Ser2056 autophosphorylation under anoxia ([12]; anoxic, FIG. 6 (20 μM)): able to inhibit phosphorylation | inhibition of Ser2056 on DNA-PKcs ([12]; oxia, 10 Gy, FIG. 7 (10 μM)): did not inhibit | inhibition of Ser2056 autophosphorylation under oxia ([12]; oxic, 10 Gy, FIG. 5 (20 μM)): little inhibition | radiosensitisation / differential growth inhibition of HAP1 cells [1]: did not demonstrate any differential growth inhibition | pIC50 [1]: 5.01 | pIC50 [2]: < 4.00 | pIC50 [3]: < 4.00 | IC50 [4]: 0.766 µM | pIC50 [4]: 6.12 | inhibition of phosphorylation of Ser1981 on ATM [13]: did not inhibit | D1 (radiation dose for 1% surviving fraction) ([6]; 0% O2, compound conc 10 μM): 9.72 Gy | D10 (radiation dose for 10% surviving fraction) ([6]; 0% O2, compound conc 10 μM): 6.78 Gy | SER1 (sensitiser enhancement ratio at 1% surviving fraction) ([6]; 0% O2, compound conc 10 μM): 1.25 | SER10 (sensitiser enhancement ratio at 10% surviving fraction) ([6]; 0% O2, compound conc 10 μM): 1.79 | Plating efficiency drug/no drug ([6]; 0% O2, compound conc 10 μM): 1.01 | D1 (radiation dose for 1% surviving fraction) ([6]; 20% O2, compound conc 10 μM): 7.43 Gy | D10 (radiation dose for 10% surviving fraction) ([6]; 20% O2, compound conc 10 μM): 4.96 Gy | SER1 (sensitiser enhancement ratio at 1% surviving fraction) ([6]; 20% O2, compound conc 10 μM): 1.16 | SER10 (sensitiser enhancement ratio at 10% surviving fraction) ([6]; 20% O2, compound conc 10 μM): 1.13 | Plating efficiency drug/no drug ([6]; 20% O2, compound conc 10 μM): 1.57 | SER (sensitiser enhancement ratio) [6]: 1.37 | radiosensitisation of UT-SCC-54C cells under oxic conditions [6]: does not | IC50 [7, 14]: 30000 nM | IC50 [7, 15]: 30000 nM | pIC50 [8]: 6.06 | radiosensitisation / differential growth inhibition of DNA-PK null HAP1 line [9]: did not demonstrate any differential growth inhibition | pIC50 [9]: 5.07 | pIC50 [10]: 4.97 | S50 [10]: 10.9 µM | radiosensitisation / differential growth inhibition of UT-SCC-54C cells [10]: did not display any differential growth inhibition

— patent publication US20230365559A1, “NOVEL AMINOPYRIDINES AND THEIR USE IN TREATING CANCER” (priority 2020, published 2023)
